Data from PMC7810697, “Sarcolipin alters SERCA1a interdomain communication by impairing binding of both calcium and ATP” (Scientific Reports, 2021).
Values joined by “and” are separate entries in the source; they are usually repeats but may differ in a detail not shown here. Identical values can stand only once. Each block holds one compound with its values, some of them ahead of it. Ends that are not written are not given here.

Columns and labels:
[1] = molecular target: T1, recombinant SERCA1a (recS1a) (Oryctolagus cuniculus, UniProt P04191); assay: Vanadate inhibition of phosphoenzyme formation, recS1a; format: biochemical, rabbit (expressed in S. cerevisiae); details: absence of pSLN, phosphorylation 30 s at 0 °C, three independent experiments
T1 construct: BAD (biotin acceptor domain) (C, cleaved yes); made in house; host or cells: Saccharomyces cerevisiae
Description: (§1) Transient formation of the phosphoenzyme intermediate was measured after incubation with [γ^32P]ATP followed by acid quenching, and filtration. For most experiments, 50 µL of enzyme at 10 µg/mL in a buffer containing 50 mM Tes-Tris pH7.5, 1 mM KCl, 5 mM MgCl2, 20% glycerol (w/w) and 0.5 mg/mL DDM, supplemented or not with SLN, was stored on ice. Concentrations of EGTA and calcium are specified in figure legends in order to reach the appropriate [Ca^2+]free and therefore the desired starting state for the ATPase. For kinetics of phosphorylation, we initiate reaction by addition of 2 µM [γ^32P]ATP (5 mCi/µmole), and calcium at 100 µM when specified. Reaction was quenched by addition of 2 mL of cold quenching medium (500 mM TCA + 30 mM H3P0_4) under vigorous mixing, and immediately stored on ice for 20–30 min to improve precipitation, a period of time critical for retention of the precipitate on the filter in presence of detergent. This was followed by filtration on GS filters (Millipore, Saint Quentin-Fallavier, France) and careful rinsing of the filters with diluted quenching medium (50 mM TCA + 3 mM H3P0_4). The amount of radioactivity bound to the filter was estimated by liquid scintillation counting (Perkin Elmer TriCarb Counter). When starting from a calcium-deprived state (Fig. 4C,D), EGTA was added only one minute before starting phosphorylation to limit irreversible inactivation of the solubilized ATPase, although the presence of glycerol helps in protecting the enzyme from irreversible inactivation. For dephosphorylation kinetics, 1 mM “cold” Mg.ATP was added after a 30 s period of phosphorylation. For Ca^2+-dependency, we adjust the concentration of free calcium according to the Ca.EGTA constant as mentioned above, before triggering phosphorylation. […] Phosphorylations were done at 0 °C especially for inhibition by vanadate to prevent dissociation of vanadate and limit irreversible inactivation in absence of calcium.

SERCA1a [2] = details: deacylation with hydroxylamine; steady state; in membrane or after solubilization by C12E8; cited from earlier work
Excerpt: Effect on the turnover is less clear as it seems to highly depend on the system used for functional characterization. […] This post-translational modification is also present in pig SLN and presumably in a few other mammals and birds, as judged from the amino-acid sequences. Among the other hundred seq ...

[3] = molecular target: T1, recombinant SERCA1a (recS1a); assay: Mg.ATP binding by tryptophan fluorescence; set-up: species or system rabbit (expressed in S. cerevisiae)
Description: (§2) Intrinsic fluorescence of SERCA1a was measured with a SPEX Fluorolog spectrofluorometer (Horiba/Jobin–Yvon, Longjumeau, France) as described before. Briefly, signals were monitored with excitation and emission wavelength set at 295 and 320 nm, with bandwidths of 2 and 10 nm, respectively. Changes in tryptophan fluorescence were recorded at 20 °C after dilution of protein samples to a final concentration of about 6–7.5 µg/mL into a medium containing 50 mM MOPS-Tris pH 7, 100 mM KCl, 5 mM MgCl2, 20% glycerol (v/v) and 10 mg/mL DDM. In presence of SLN, recS1a and SLN were first mixed together and incubate for 1 h on ice before measurement. In absence of SLN, recS1a is supplemented with 0.07 mg/mL C12E8 to compensate the detergent present with SLN. The Maxchelator program was used for estimating [Ca^2+]free[59] (program available at https://somapp.ucdmc.ucdavis.edu/pharmacology/bers/maxchelator/downloads.htm). The dissociation constant of the Ca.EGTA complex was taken to be 0.4 µM at pH7 and was assumed to be the same in the presence of glycerol.

[4] = test system: protein phosphatase 1a (PP1a); details: cited from earlier work
Excerpt: (§3) Besides its various roles in protein signalling and addressing, palmitoylation can also regulate oligomerisation processes of membrane proteins. Recent work has shown that other P-type ATPases regulatory subunits like phospholamban (PLB) and phospholemman (PLM) are palmitoylated[16],[17]. Acylation of PLB and PLM is functionally relevant by having an impact on the oligomerisation of the peptides, their association with their dedicated pumps (Ca^2+-ATPase or Na+, K+-ATPase, respectively) and on their lifetime.

protein kinase A (PKA) = details: cited from earlier work
Excerpt: as §3

SERCA1a [5] = details: cited from earlier work
Excerpt: as §3

[6] = molecular target: T1, recombinant SERCA1a (recS1a); assay: Steady-state ATPase activity, enzyme-coupled assay; format: biochemical, rabbit (expressed in S. cerevisiae); details: absence of pSLN; steady state, NADH-coupled assay; three independent experiments
Description: resuspended in a large volume of pure water and lyophilized to evaporate most of the TFA. The rinsed powder was then suspended in presence of 10 mM HCl to exchange the anionic residual TFA that may interact with the positive charges of the peptide for chloride. This suspension was lyophilized again.
Three additional cycles of – dissolving in pure water / lyophilisation – will allow to eliminate traces of TFA and to get back to a pH compatible with functional tests. For final solubilisation of SLN in detergent, powder was then dissolved in 50% TFE and an amount of detergent to reach a 100:1 mole:mole detergent:SLN ratio. Here, we used C12E8 as it is fully compatible with functional characterization of SERCA1a 23. This suspension was then lyophilized again to evaporate TFE.
Sarcolipins (Palm-SLN or SLN) were finally resuspended at 0.8 mg/mL (about 200 µM) in a 10 mM potassium phosphate buffer pH 7.4, in the presence of 2.5 mg/mL C12E8.
Expression and Purification of recombinant SERCA1a (recS1a)
The yeast expression plasmid pYeDP60-SERCA1a-BAD (WT) and expression in Saccharomyces cerevisiae was described previously 30. Yeast membranes were solubilized by DDM for subsequent purification of recombinant Ca2+-ATPase by Streptavidin affinity chromatography 31. Purified recombinant SERCA1a was recovered in a buffer containing 50 mM MOPS-Tris pH7, 100 mM KCl, 5 mM MgCl2, 2.1 mM CaCl2, 40 % glycerol (v/v) and 0.5 mg/mL DDM, together with some thrombin remaining from the elution procedure. The protein concentration in the purified fraction was in the 0.05 to 0.15 mg/mL range depending on the batch. […]
Steady-state ATPase activity measurements
Measurements were performed using classical enzyme coupled assay. We measured the rate of NADH oxidation in the presence of 0.1 mg/mL lactate deshydrogenase, 0.05 mg/mL pyruvate kinase, 1 mM phosphoenolpyruvate, 0.25 mM NADH (protocol was adapted from 22) and in the additional presence of 2 mg/mL C12E8 to limit time-dependent inactivation of the purified SERCA1a 20,23.

[7] = molecular target: T1, recombinant SERCA1a (recS1a); assay: Calcium dependence of phosphoenzyme level; format: biochemical, rabbit (expressed in S. cerevisiae); details: absence of pSLN, five independent experiments
Description: as §1

[8] = molecular target: T1, recombinant SERCA1a (recS1a); assay: Calcium binding at equilibrium by tryptophan fluorescence; set-up: species or system rabbit (expressed in S. cerevisiae); details: absence of pSLN, average of three independent experiments
Description: as §2

[9] = test system: recombinant purified SERCA1a (recS1a); assay: Limited proteolysis with proteinase K (SDS-PAGE); format: biochemical, rabbit (expressed in S. cerevisiae); details: DDM-solubilized SR; 5 min profile similar to 60 min in native lipids
Description: Yeast-expressed and purified SERCA1a (recS1a) was supplemented with SLN at a mole:mole ratio of 1:10 recS1a:SLN. In absence of SLN, recS1a was supplemented with 0.07 mg/mL C12E8, an amount that corresponds to the detergent brought with chemically synthesized SLN. After 30 min at 20 °C, samples were supplemented with either 1.1 mM EGTA (Ca^2+free ~ 1 mM), or 50 mM EGTA (Ca^2+free ~ 150 nM) and 0.01 mg/mL Tg. After an additional incubation for 10 min at 20 °C, proteolysis was achieved by addition of 0.3 mg/mL proteinase K. Proteolysis was stopped by addition of 1 mM PMSF and incubation on ice for 10 min. After proteolysis arrest, samples were diluted twice in a 4 M-urea containing denaturation buffer, boiled for 60 s, and about 0.75 µg protein were loaded on a 9% SDS-PAGE prepared in the presence of 1 mM Ca^2+[32]. After electrophoresis, gels were stained with Coomassie blue.

T1 sequence (P04191 1-994 isoform P04191-2): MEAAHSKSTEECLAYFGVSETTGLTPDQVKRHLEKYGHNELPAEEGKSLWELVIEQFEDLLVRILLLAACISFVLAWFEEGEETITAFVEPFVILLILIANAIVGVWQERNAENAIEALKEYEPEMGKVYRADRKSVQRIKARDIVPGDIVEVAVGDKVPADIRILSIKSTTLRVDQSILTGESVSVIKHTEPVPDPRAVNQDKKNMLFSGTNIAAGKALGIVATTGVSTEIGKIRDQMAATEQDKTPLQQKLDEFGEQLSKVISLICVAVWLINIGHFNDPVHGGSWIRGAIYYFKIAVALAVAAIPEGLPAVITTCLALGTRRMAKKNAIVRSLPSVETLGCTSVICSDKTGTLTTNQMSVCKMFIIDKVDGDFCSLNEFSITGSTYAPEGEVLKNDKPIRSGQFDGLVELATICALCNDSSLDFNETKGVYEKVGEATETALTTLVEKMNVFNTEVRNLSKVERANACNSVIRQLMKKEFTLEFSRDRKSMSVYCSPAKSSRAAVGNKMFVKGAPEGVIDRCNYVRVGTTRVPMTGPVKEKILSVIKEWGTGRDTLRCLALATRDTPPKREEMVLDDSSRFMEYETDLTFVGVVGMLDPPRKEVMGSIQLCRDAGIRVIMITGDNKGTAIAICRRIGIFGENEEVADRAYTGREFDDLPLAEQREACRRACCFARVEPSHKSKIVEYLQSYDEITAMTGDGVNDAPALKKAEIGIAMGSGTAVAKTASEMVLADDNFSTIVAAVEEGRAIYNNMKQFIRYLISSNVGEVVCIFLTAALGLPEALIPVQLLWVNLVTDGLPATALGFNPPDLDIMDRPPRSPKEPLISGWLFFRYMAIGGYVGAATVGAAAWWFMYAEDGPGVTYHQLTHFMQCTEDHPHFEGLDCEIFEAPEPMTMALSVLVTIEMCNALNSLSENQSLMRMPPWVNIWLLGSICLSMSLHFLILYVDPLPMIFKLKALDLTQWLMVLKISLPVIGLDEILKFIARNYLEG

K1/2 (K0.5) for vanadate inhibition, recS1a alone [1]: 1.43 ± 0.08 µM
K1/2 (K0.5) for vanadate inhibition, recS1a alone ([1]; listed as vanadate): 1.43 ± 0.08 µM
Compound: [O]=[V]([O-])([O-])[O-] [orthovanadate, reference compound]

Compound: native SLN: native rabbit sarcolipin, S-palmitoylated or S-oleoylated on Cys9, co-purified with SERCA1a from SR (MERSTRELCLNFTVVLITVILIWLLVRSYQY; also: Cys9 S-palmitoylated or S-oleoylated; UniProt P42532 1-31, looked up)
effect of deacylation of native SLN on affinity for calcium and Vmax (SERCA1a [2]): no effect

Mg-ATP1/2 (affinity for Mg.ATP), recS1a alone ([3]; absence of pSLN, calcium-deprived (2 mM EGTA), pH 7, 20 °C, DDM, 20% glycerol, three independent experiments): 3 µM and 3.00 ± 0.12 µM
nH for Mg.ATP, recS1a alone ([3]; absence of pSLN, three independent experiments): 0.99 ± 0.04
Mg.ATP concentration sufficient to saturate the SERCA1a site ([3]; in absence of SLN, not in its presence): about 30 µM
Compound: Nc1ncnc2c1ncn2[C@@H]1O[C@H](COP(=O)(O)OP(=O)([O-])OP(=O)([O-])O)[C@@H](O)[C@H]1O.[Mg+2] [Mg.ATP, reference compound]

Compound: PLB: phospholamban, 52 amino-acid long, with a transmembrane helix and a long cytosolic extension
effect of PLB palmitoylation (Cys 36) on PP1a affinity [4]: reduces affinity for protein phosphatase 1a (PP1a)
effect of PLB palmitoylation (Cys 36) on PKA affinity (protein kinase A (PKA)): increases affinity for protein kinase A (PKA)
effect of PLB phosphorylation on SERCA1a inhibition (SERCA1a [5]): release of SERCA1a inhibition without its full dissociation from the pump

Ca1/2 (ATPase activity), recS1a alone [6]: 0.15 ± 0.08 µM
nH for calcium (phosphoenzyme level), recS1a alone [7]: 0.54 ± 0.02
Ca1/2 (phosphoenzyme level), recS1a alone ([7]; phosphorylation 15 s): 0.33 ± 0.03 µM and 0.33 µM
Ca1/2 (tryptophan fluorescence), recS1a alone ([8]; at equilibrium, pH 7, 20 °C, DDM, 20% glycerol): 2.94 ± 0.30 µM and 2.9 µM
nH for calcium (tryptophan fluorescence), recS1a alone [8]: 1.67+/-0.25
Compound: [Ca+2] [calcium]

effect of detergent on proteinase K proteolysis [9]: significantly accelerates proteolysis
Compound: CCCCCCCCCCCCO[C@@H]1O[C@H](CO)[C@@H](O[C@H]2O[C@H](CO)[C@@H](O)[C@H](O)[C@H]2O)[C@H](O)[C@H]1O [DDM, n-dodecyl β-D-maltopyranoside, reference compound]
